This note sets out measurements from US20250313530A1, “SMALL MOLECULE INHIBITORS OF INTERLEUKIN-4 AND USES THEREOF” (Trustees of Boston University, priority 2024, published 2025).

Molecules are shown by their SMILES. “And” between values parts separate entries of the source, which are not always exact repeats. Identical values can stand only once. Like-named read-outs stand apart in the source and are kept apart here.

A word on the EC50: it is the concentration at which the effect is half-maximal. Broadly, the Papp is a coefficient for how fast a substance crosses the barrier. Higher therefore signals fast passage. What is called % Inhibition is the percentage by which the read-out fell short of the control. High values mean a response far below the control, low ones a response near the control. Usually inhibition stands for the share of the control response that was lost under treatment. For orientation: Hill coefficient means the slope factor of the fitted curve.

A short description of series [1]: Mouse plasma stability. In kind it is in vitro ADME.
For series [2], the system named is IL-4 induced STAT-6 phosphorylation in THP-1 monocytes (type II IL-4 receptor). In words: THP-1 STAT-6 phosphorylation assay (western blot). In kind it is cell-based. The protocol: THP-1 cells were received as a gift from the laboratory of Dr. Mark Grinstaff and maintained in RMPI-1640 with […] heat-inactivated Fetal Bovine Serum and 50 μM beta-mercaptoethanol. Cells used for assays were between passages 6 and 10, 10 ng/mL IL-4 was preincubated with experimental sample (vehicle or analogs) for 30 minutes at 37° C. 1 mL of each solution was then added to a pellet of 2 E6 THP-1 cells and pipetted up and down. THP-1 cells were incubated for 30 minutes in the incubator at 37 C/5% CO2. Cells were then spun down and lysed with 200 μL ice-cold RIPA buffer complete with phosphatase and protease inhibitors. Cell lysates were incubated on ice for 30 minutes, spun down and the supernatants were stored at −20° C. until western blot analysis. Undiluted cell lysates were run on SDS-PAGE and transferred to Immunoblot PVDF membrane using Biorad equipment. Membranes were incubated with 1:1000 primary antibody overnight at 4° C. Membranes were then incubated with 1:50,000 dilution secondary for 1 hour at room temperature. Membranes were then exposed to Femto ECL for 5 minutes and imaged using a Bio-Rad Gel Doc. The brightness/contrast was adjusted in FIJI and the area under the curve of each lane was quantified. The phosphorylated STAT-6 to STAT-6 ratio was calculated and normalized to the amount of total STAT-6. The data was plotted and analyzed using GraphPad Prism 9.2.0′.
(In general: Immunoblotting shows a protein as a band on a membrane.)

A short description of series [3]: PAMPA membrane permeability. In kind it is in vitro ADME. The following applies: 18 hours incubation. The protocol:
PVDF membranes purchased from Bioassay Systems PAMPA-096 were coated with 5 μL of 4% Phosphatidylcholine (Lecithin, MP Biomedicals 0210214780) in dodecane. […] Permeability was calculated by Pv=C×ln (1−ODA/ODE) cm/s, where ODA is the absorbance of acceptor solution minus blank, and ODE the absorbance of the equilibrium standard minus blank, and C=7.72×10^−6 using an 18-hour incubation time.

Series [4] deals with T1, IL-4 (Homo sapiens, UniProt P05112).
T1 construct: purchased Acros Biosystems IL4-H4218; host or cells: HEK-293
T1 sequence (P05112 25-153): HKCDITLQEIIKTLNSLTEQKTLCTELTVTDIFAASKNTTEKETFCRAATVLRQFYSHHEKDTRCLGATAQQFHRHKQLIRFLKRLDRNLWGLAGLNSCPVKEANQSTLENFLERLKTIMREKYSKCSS
As to the kind of experiment: HEK-Blue IL-4/IL-13 reporter assay, IL-4 inhibition. In kind it is cell-based. The following applies: for % Inhibition / inhibition at 10 µM: 10 μM, IL-4, HEK Blue IL-4/IL-13 reporter assay; for inhibition at 10 µM: HEK-Blue; for EC50: dose response, IL-4 inhibition. The protocol: HEK-Blue IL-4/IL-13 Inhibition assay. HEK-Blue IL-4/IL-13 reporter cell lines were purchased from Invivogen and cultured in DMEM with 10% Heat Inactivated Fetal Bovine Serum (FBS), 100 U/ml-100 μg/ml Pen-Strep, 10 μg/ml blasticidin, 100 μg/ml Normocin and 100 μg/ml Zeocin. Cells were tested for secreted embryonic alkaline phosphatase (SEAP) production induced by IL-4 alone prior to small molecule screening.
22.5 μl of small molecule in DMEM 4% DMSO was added to 22.5 μl of 1 ng/ml IL-4 in DMEM in a non-binding 96-well reaction plate for 30 minutes at room temperature. The reaction plate was further incubated for 30-60 min at 37° C. HEK-Blue IL-4/IL-13 reporter cell line was used between passages 11-17. […] Measurements were done in triplicate. The plate was incubated for ˜22-24 hours at 37° C./5% CO2. Quanti-Blue dye was prepared as per the manufacturer's recommendation and 160 μl was dispensed in each well of a 96-well plate (avoid edges to avoid evaporation), 40 μl of cell supernatant was added to the same plate and incubated for 3 hours at 37° C./5% CO2. Optical density was then measured at 650 nm using Molecular Devices SpectraMax M5 Microplate reader. Data was analyzed and plotted using GraphPad Prism 9.2.0.
Background: A reporter such as luciferase makes a cellular process visible.

The target of series [5] is T2, soluble IL-4 (Homo sapiens, UniProt P05112).
T2 sequence (P05112 25-153): T1 sequence (P05112 25-153)
In words: Differential scanning fluorimetry (thermal shift), IL-4. The series is classed as binding. The following applies: soluble IL-4, 2 μM compound, 0.1% DMSO; read-out: Tm shift. The protocol: DSF was performed using BioRad CFX384.
(DSF heats the sample and reads unfolding from a dye or from intrinsic fluorescence.)

Series [6] deals with IL-4 induced STAT-6 phosphorylation in Ramos B lymphocytes (type I IL-4 receptor). In words: Ramos STAT-6 phosphorylation assay (western blot). In kind it is cell-based. The protocol:
Ramos cells were purchased from ATCC and maintained in RMPI-1640 with 10% heat-inactivated Fetal Bovine Serum. Cells used for assays were between passages 4 and 8. […] Undiluted cell lysates were run SDS-PAGE and transferred to Immunoblot PVDF membrane using Biorad equipment. Membranes were incubated with 1:1000 primary antibody overnight at 4° C. Membranes were then incubated with 1:50,000 dilution secondary for 1 hour at room temperature. Membranes were then exposed to Femto ECL for 5 minutes and imaged using a Bio-Rad Gel Doc. The brightness/contrast was adjusted in FIJI and the area under the curve of each lane was quantified. The phosphorylated STAT-6 to STAT-6 ratio was calculated and normalized to the amount of total STAT-6. The data was plotted and analyzed using GraphPad Prism 9.2.0.

Series [7] addresses T1, IL-4. In words: HEK-Blue IL-4/IL-13 reporter assay, IL-4 inhibition. In kind it is cell-based. The following applies: control: cells with 10 μM compound only, no IL-4.
Series [8] in a line: Human plasma stability. The settings on record: listed as Analog 14. In kind it is in vitro ADME.
A short description of series [9]: Mouse hepatic microsome stability. The following applies: mouse hepatic microsomes. In kind it is in vitro ADME.
For series [10], the target named is IL-13 (Homo sapiens, UniProt P35225). In words: HEK-Blue IL-4/IL-13 reporter assay, IL-13 inhibition. In kind it is cell-based. The protocol:
Prior to screening. […] The solution was added to preincubated cells in a 96-well culture plate. The supernatant was then incubated with Quanti-Blue dye for 3 hours and absorbance was measured at 650 nm. Data was analyzed and plotted using GraphPad Prism 9.2.0.

Series [11] has as its system IL-4 induced pSTAT-6 in THP-1 cells. As to the kind of experiment: THP-1 pSTAT-6 immunofluorescence.
Method: IL-4 and analogs or vehicle (DMEM with 2% DMSO) were preincubated for 2 hours at 37° C. After the incubation, IL-4 or IL-4/analogs were incubated with THP-1 cells for 30 min at 37° C./5% CO2. Incubated cells were centrifuged for 5 min at 250×g. After aspirating the supernatant, cells were resuspended in 1×PBS and plated into a MatTek dish coated with Cell Tak adhesive for 30 minutes at room temperature. Cells were fixed with 4% Paraformaldehyde for 1 hour at room temperature. Cells were rinsed twice with 1×PBS and then permeabilized with 0.5% Triton-X for 1 hour at room temperature. Cells were rinsed again with 1×PBS, and blocked for an hour in superblock with 0.05% Tween-20, rinsed twice, and then incubated with anti-pSTAT-6 1:100 diluted in superblock 0.05% Tween-20 overnight at 4° C. (parafilmed to avoid evaporation). Cells were rinsed thrice with 1×PBS and then incubated with Mouse anti-rabbit IgG(H+L) Secondary Antibody-Alexa Fluor 647 for 1 hour at room temperature in the dark. […] Cells were rinsed twice with 1×PBS and left in 1 ml of 1×PBS. Confocal Imaging was done using an Olympus FV10i and images were processed using FIJI.
Series [12] deals with B16-F10 cells. In words: In vitro cytotoxicity (CellTiter-Glo). In kind it is cell-based. The settings on record: up to 25 μM. The protocol:
CellTiter-Glo 2.0 purchased from Promega G9242) was used to measure cell viability with the Victor-3 plate reader (PerkinElmer) after 24 hours in concentrations of compound up to 25 μM. Vehicle was used as a negative control for both cytotoxicity and growth inhibition, methanol was used as a positive control for cytotoxicity, and 1% FBS was used as a positive control for growth inhibition.

The mark [13] stands for this setting: HEK Blue IL-4/IL-13 reporter assay, read-out: EC50.

Chain of IL-13 (P35225 25-146): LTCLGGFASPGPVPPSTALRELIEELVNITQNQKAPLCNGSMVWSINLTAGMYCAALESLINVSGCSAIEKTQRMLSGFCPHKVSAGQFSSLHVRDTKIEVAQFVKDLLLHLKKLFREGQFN

On to `N#Cc1c(-c2ccc(O)c(O)c2)cc(-c2ccc(N)cc2)[nH]c1=N` [Compound 14, 6-(4-aminophenyl)-4-(3,4-dihydroxyphenyl)-2-imino-1,2-dihydropyridine-3-carbonitrile], for which the “Mouse plasma stability (% remaining after 3 hours)” value is given as more than 99% in series [1] and more than 99%/>99% in series [1] (listed as Analog 14). For the same compound, the EC50 is 686 nM in series [2] (Homo sapiens, THP-1 monocytes, western blot, normalized to STAT-6, read-out: EC50 of inhibition of STAT-6 phosphorylation); 670 ± 280 nM in series [4] (setting [13]); 627 nM in series [4] (values in text, read-out: potency (EC50 of inhibition)); 18200 nM in series [10] (soluble IL-13 mediated signaling, HEK Blue IL-4/IL-13 reporter assay). Further, the STAT-6 levels entry in series [2] (total STAT-6, THP-1 cells) is listed as “not impacted”. Moreover, the Papp at 18 h, 100 μM in series [3] was determined as 6.2 ×10⁻⁶ cm/s. Further, the “% Inhibition” value in [4] is 94.5% and 94.5 ± 1.58% and 94.5 ± 1.68%. This compound displayed an inhibition at 10 µM in series [4] of more than 80%. In addition, the Hill coefficient in series [4] (fit of dose response in HEK Blue IL-4/IL-13 reporter assay) amounted to 1.69±0.25. Further, the ΔTm at 2 µM in series [5] turned out to be 1.66 °C. The inhibition at 0.5 µM in [6] (Homo sapiens, Ramos, read-out: percent inhibition of STAT-6 phosphorylation) worked out at 31.4%. Moreover, the “inhibition of phosphorylation of STAT-6” value in series [6] (Ramos B lymphocytes, 50 nM) is “minimum inhibition”. The same compound gave an Abs650 in series [7] of 0.05948 ± 0.000642. Moreover, the “Human plasma stability (% remaining after 3 hours)” value in [8] is more than 99%/>99%. Moreover, the “Mouse hepatic microsome stability (% remaining after 1 hour)” value in series [9] and in series [9] (listed as Analog 14) was 75.4% in each case. For the same compound, the “fold less potent for IL-13 than for IL-4” value in series [10] (IL-13 EC50 versus IL-4 EC50) was found to be 100 fold. Also, the entries for the “STAT-6 phosphorylation by immunofluorescence” value in [11] (500 nM) and in series [11] (5 μM) were “significant reduction in STAT-6 phosphorylation” and “almost no visible STAT-6 phosphorylation”, respectively. The “Cytotoxicity in B16-F10 cells (24 hours)” value in [12] is listed as “no toxicity”; in series [12] (listed as Analog 14), “n.s. < 25 μM”.

Take `N#Cc1c(-c2ccc(O)c(O)c2)cc(C23CC(C2)C3)nc1N` [1A/54, 6-(bicyclo[1.1.1]pentan-1-yl)-4-(3,4-dihydroxyphenyl)-2-imino-2,3-dihydropyridine-3-carbonitrile]: the inhibition at 10 µM in series [4] (read-out: % Inhibition) stood at 86.1%. In addition, the “Mouse hepatic microsome stability (% remaining after 1 hour)” value in series [9] is listed as 68.3%.

With `N#Cc1c(-c2ccc(O)c(O)c2)cc(-c2ccc(O)cc2)[nH]c1=N` [Compound 4, 4-(3,4-dihydroxyphenyl)-6-(4-hydroxyphenyl)-2-imino-1,2-dihydropyridine-3-carbonitrile], in [4], the “% Inhibition” value turned out to be 81.2 ± 18.9% and the inhibition at 10 µM is more than 80%. The concentration giving a half-maximal response (EC50) in series [4] (setting [13]) came out at 1140 ± 380 nM.

`N#Cc1c(-c2ccc(O)cc2)cc(-c2ccc(F)cc2)[nH]c1=O` [Compound 41, 6(4-fluorophenyl)-4-(4-hydroxyphenyl)-2-oxo-1,2-dihydropyridine-3-carbonitrile] showed an inhibition at 10 µM in series [4] of 60.7 ± 10.3%.

Regarding `N#Cc1c(-c2ccc(O)c(O)c2)cc(C2CCC2)nc1N` [3A/56, 2-amino-6-cyclobutyl-4-(3,4-dihydroxyphenyl) nicotinonitrile], in series [4] (read-out: % Inhibition), the inhibition at 10 µM is 28.5 ± 12.1%.

As for `Cc1ccc(-c2cc(-c3ccc(O)c(O)c3)c(C#N)c(=N)[nH]2)cc1` [Compound 5, 4-(3,4-dihydroxyphenyl)-2-imino-6-(p-tolyl)-1,2-dihydropyridine-3-carbonitrile], in [4], the “% Inhibition” value was 62.7 ± 4.30% and 82.7 ± 4.30%; the inhibition at 10 µM was more than 80%. Moreover, the EC50 in [4] (setting [13]) was found to be 1290 ± 470 nM.

Take `N#Cc1c(-c2ccc(O)c(O)c2)cc(-c2ccc(-c3ccccc3)cc2)[nH]c1=N` [Compound 10, 6-([1,1′-biphenyl]-4-yl)-4-(3,4-dihydroxyphenyl)-2-imino-1,2-dihydropyridine-3-carbonitrile]: the inhibition at 10 µM in series [4] (read-out: % Inhibition) came to 4.73 ± 4.58%.

Regarding `COc1ccc(C2=NC(=N)C(C#N)C(c3ccc(O)c(O)c3)=C2)cc1` (stereo not shown) [Compound 6, 4-(3,4-dihydroxyphenyl)-2-imino-6-(4-methoxyphenyl)-2,3-dihydropyridine-3-carbonitrile], the “% Inhibition” value in [4] was determined as 51.7 ± 5.05%. Besides, in [4] (setting [13]), the 50% effective concentration (EC50) was found to be 3020 ± 610 nM.

`N#Cc1c(-c2ccc(O)c(C(=O)O)c2)cc(-c2ccc(N)cc2)nc1N` [Compound 33, 5-(2-amino-6-(4-aminophenyl)-3-cyanopyridin-4-yl)-2-hydroxybenzoic acid] showed an inhibition at 10 µM in series [4] of 6.63%.
